The results in this text go back to US10870876B2, “Method for detecting a presence or absence of at least one first zone of inhibition” (BIOMÉRIEUX, priority 2015, dated 2020).

In assay [1] the test system is Staphylococcus aureus ATCC 25923. The assay is described as follows: Disk-diffusion test with ampicillin disk, inoculation by flooding or by droplets along an axis. The assay is classed as cell-based. Particulars: disk containing 10 pig of ampicillin, 0.5 McFarland, 37° C. for 6 hours 30 minutes; similar for flooding and droplets; EUCAST threshold R 18 mm. The text has this:
A conventional test of sensitivity is the disk-diffusion test, often referred to as the Kirby-Bauer method. This standardized method involves the inoculation of an agar culture medium (for example a 90 mm or 150 mm Mueller-Hinton agar) with a sample, generally standardized to 0.5 McFarland, obtained from a microbial isolate. The inoculation may be performed by conventional manual methods, by means of a swab or a loop. Alternatively, the inoculation may be performed by flooding the agar with a suspension standardized to one tenth of 0.5 McFarland, followed by removal of the excess sample. Following the inoculation, one or more paper disks impregnated with defined concentrations of antibiotics are deposited on the surface of the agar. After an incubation period, generally from 16 to 20 hours at 35° C., the diameter of the zone(s) of inhibition around the disks makes it possible to determine the sensitivity of the microorganism present in the inoculated sample to each of the antimicrobial agents impregnated in each disk. Due to the standardization of the Kirby-Bauer method, the results of this method are analyzed by comparing the diameter of each of the zones of inhibition with the recommendations published by regulatory bodies such as NCCLS (National Committee for Clinical Laboratory Standards) or EUCAST (European Committee on Antimicrobial Susceptibility Testing). […]
(In general: Agar diffusion results depend on both activity and mobility in agar.)

The test system of assay [2] is Escherichia coli ATCC 35218. Description: Etest strip MIC, deposition of the sample in droplets along the strip. It counts as cell-based.

Turning to `CC1(C)S[C@@H]2[C@H](NC(=O)[C@H](N)c3ccccc3)C(=O)N2[C@H]1C(=O)O` [Ampicillin, ampicillin], the “diameter D of the zone of inhibition” value in assay [1] stood at 22 mm.

By MIC is commonly meant the smallest concentration in the dilution series that meets the test's criterion for growth inhibition. For gentamicin, the MIC in assay [2] (Table 2, droplet, ATCC 35218, 0.01 McF, 4 H) was determined as 1.3 µg/mL; in assay [2] (Table 2, droplet, ATCC 35218, 0.01 McF, 5 H), 1.3 µg/mL; in assay [2] (Table 2, droplet, ATCC 35218, 0.1 McF, 4 H), 2 µg/mL; in assay [2] (Table 2, droplet/replicate 2, ATCC 35218, 0.5 McF, 4 H) it was 2 µg/mL.
